Here are results for two compounds from patent US7429482B2, “Screening tools for discovery of novel anabolic agents” (United States of America as represented by the Department …, priority 2005, dated 2008).

One assay relates to MAFbx mRNA. The experiment in a line: MAFbx mRNA levels in AR6 / C2C12.AR cells (qPCR). The format is cell-based, mouse. As to conditions: dexamethasone with concurrent testosterone. As to the method: (A) Rats were administered test agents as indicated in the figure for 7-days, at which time animals were sacrificed and MAFbx expression was determined in gastrocnemius muscles by qPCR. Data are mean values±SEM for at least 8 animals. * p<0.05 vs vehicle, t-test. (B) AR6 cells were seeded into 6-well plates and incubated overnight in growth medium. Medium was replaced with DMEM containing 2% horse serum followed by incubation for an additional 48 hours. Hormones or vehicle (EtOH) were added to the medium and cells were incubated overnight, at which time MAFbx mRNA levels were determined by qPCR and expressed as fold-induction versus levels in cells incubated with EtOH. Data are mean values±SEM for three determinations each performed in triplicate. * p<0.05 vs. EtOH (ANOVA). (C) Effect of testosterone on MAFbx mRNA half-life. C2C12.AR cells were incubated overnight in growth medium supplemented with testosterone or vehicle (EtOH). […] Levels of MAFbx mRNA are expressed as a percentage of those at time zero. […]
RNA was quantified by absorbance at 260 nm. […] Relative changes in expression were determined using the 2^−ΔΔCt method. Taqman Assay on Demand probes (Applied Biosystems) were used for all assays except rat 18S RNA, which was quantified using the following Assay on Demand Probes: Forward: […] […]
(In general: Real-time PCR tracks product formation cycle by cycle.)

Assay [1] relates to starved, cultured muscle cells. Briefly: Muscle breakdown in starved, cultured muscle cells. The format is cell-based.
A short description of assay [2]: Acute denervation (0-14 days): muscle weights. The format is in vivo. As to conditions: rat. As to the method:
Male Wistar rats weighing 250 gm (Taconic Farms, Germantown, N.Y.) were provided food and water ad libitum and were housed in a temperature and humidity controlled environment providing a 12:12 hour day-night cycle. For surgical procedures, animals were anesthetized with ketamine/xylazine. The left sciatic nerve was exposed by blunt dissection, and a 1 to 2 mm piece of this nerve was excised just below the level of the femoral head. A sham surgery was performed on the right hind limb in which the sciatic nerve was exposed but was not transected. Model 2002 Alzet pumps were implanted subcutaneously on the back. […] A pellet containing 15 mg of testosterone (Innovative Research of America, Sarasota, Fla.) administered as a continuous infusion (5 mg/wk), or a pellet containing placebo, was inserted into a subcutaneous pouch. […] Because testosterone is known to have anabolic actions (Ferrando et al., Am J Physiol Endocrinol Metab 282: E601-E607, 2002; Mauras et al., J Clin Endocrinol Metab 83: 1886-1892, 1998; Urban et al., Am J Physiol 269: E820-E826, 1995), reductions in levels of this hormone could affect muscle mass and confound interpretation of the results. Animals were euthanized 14 days later by inhalation of carbon dioxide. Following removal of blood from the left ventricle for determination of serum testosterone concentration by radioimmunoassay (MP Biomedicals, Costa Mesa, Calif.), soleus, extensor digitorum longus (EDL), gastrocnemius and plantaris muscles were excised and weighed, then were flash frozen on dry ice and stored at −80° C.

Another assay has as its system IGFBP-3. Briefly: Chronic denervation: IGFBP-3 mRNA in gastrocnemius (qPCR). The format is in vivo, rat. Here is the method:
(§1) Male Wistar rats weighing 200-250 gm (Taconic Farms, Germantown, N.Y.) were provided food and water ad libitum and were housed in a temperature and humidity controlled environment providing a 12:12 hour day-night cycle. For surgical procedures, animals were anesthetized with ketamine/xylazine. The left sciatic nerve was exposed by blunt dissection, and a 1 to 2 mm piece of this nerve was excised just below the level of the femoral head. A sham surgery was performed on the right hind limb in which the sciatic nerve was exposed but was not transected. Twenty eight days later, animals were anesthetized, and Alzet pumps were implanted subcutaneously on the back. […] Testosterone levels after replacement were approximately 15 nM, a high-normal range for rats of this age. […]
(§2) Total RNA was extracted from skeletal muscle (20 mg) by homogenization in guanidine thiocyanate using a Polytron followed by extraction of total RNA with phenol-chloroform as described by (Chomczynski and Sacchi, Anal Biochem 162: 156-159, 1987). […] Total RNA was eluted and quantified by absorbance at 260 nm. […] Levels of gene expression in the denervated muscle were expressed as fold induction relative to muscle from the sham-denervated leg of animals administered vehicle. […] Fold-induction was determined using the 2^−ΔΔCt method, using expression of 18S RNA as the normalization control. […]

Another assay deals with IGFBP-4. The experiment in a line: Chronic denervation: IGFBP-4 mRNA in gastrocnemius (qPCR). The format is in vivo, rat. As to the method:
as §1, §2

Consider `C[C@]12CC[C@H]3[C@@H](CCC4=CC(=O)CC[C@@]43C)[C@@H]1CC[C@@H]2O` [testosterone], for which, in the assay with MAFbx mRNA, the “MAFbx mRNA level versus cells exposed to ethanol only” value is “not significantly different”. Moreover, the muscle breakdown result in assay [1] is listed as “reduced”.
For the compound `C[C@]12CC[C@H]3[C@@H](CCC4=CC(=O)CC[C@@H]43)[C@@H]1CC[C@@H]2O` [nandrolone], the “weights of muscles from sham-transected limbs” value in assay [2] (nandrolone 1.5 mg/kg/wk 14 days + testosterone replacement, not statistically significant) is given as “tended to be increased”. Also, the “weights of muscles from the denervated limb versus vehicle” value in assay [2] (nandrolone 1.5 mg/kg/wk, 14 days after sciatic transection) is reported as “not significantly different”. For the same compound, in assay [2] (nandrolone 7.5 or 37.5 mg/kg/week, same protocol), the effect on atrophy result was “No effect”. The IGF-BP-3 expression result in the assay with IGFBP-3 (denervated muscle, 56-days) is reported as “significantly reduced”. In addition, the IGFBP-3 expression entry in the assay with IGFBP-3 (sham-denervated muscle) is “did not appreciably alter”. The IGFBP-4 expression entry is given as “did not significantly alter” in the assay on IGFBP-4 (denervated muscle, any time tested) and “did not appreciably alter” in the assay with IGFBP-4 (sham-denervated muscle).
